For orientation: IC50 means the concentration that inhibits the measured activity by half. Low readings indicate greater potency in that assay, high ones weaker potency in that assay.

SMILES strings stand for the structures.

We go through eleven compounds from BindingDB's records for doi:10.1021/jm950640q (Sankyo, 1997).

The assay is described as follows: Inhibiting Platelet activating factor receptor by radioreceptor binding assay using rabbit platelets and [3H]-PAF.

`C/C1=C\CC[C@@]2(C)O[C@@H]2C(=O)[C@@H]2CC[C@@H](C)[C@](C)(CC1)[C@H]2C=O` [(E)-(1R,3S,5R,12S,13R,16S)-5,9,12,13-Tetramethyl-2-oxo-4-oxa-tricyclo[10.3.1.0*3,5*]hexadec-8-ene-16-carbaldehyde] gave an IC50 of 120 nM.
For `C/C1=C\CC[C@@]2(C)O[C@@H]2C(=O)[C@@H]2CC[C@@H](C)[C@](C)(CC1)[C@H]2COc1ccon1` [(E)-(1R,3S,5R,12S,13R,16S)-16-(Isoxazol-3-yloxymethyl)-5,9,12,13-tetramethyl-4-oxa-tricyclo[10.3.1.0*3,5*]hexadec-8-en-2-one] the value was 50 nM; for `C/C1=C\CC[C@@]2(C)O[C@@H]2C(=O)[C@@H]2CC[C@@H](C)[C@](C)(CC1)[C@H]2CO` [(E)-(1R,3S,5R,12S,13R,16S)-16-Hydroxymethyl-5,9,12,13-tetramethyl-4-oxa-tricyclo[10.3.1.0*3,5*]hexadec-8-en-2-one], 1300 nM.
As for `CC(=O)OC[C@H]1[C@H]2CC[C@@H](C)[C@]1(C)CC/C(C)=C/CC[C@@]1(C)O[C@@H]1[C@@H]2O` [Acetic acid (E)-(1R,2R,3R,5R,12S,13R,16S)-2-hydroxy-5,9,12,13-tetramethyl-4-oxa-tricyclo[10.3.1.0*3,5*]hexadec-8-en-16-ylmethyl ester], the figure is 80 nM; as for `CC(=O)OC[C@H]1[C@H]2CC[C@@H](C)[C@]1(C)CC/C(C)=C/CC[C@@]1(C)O[C@@H]1C2=O` [Acetic acid (E)-(1R,3S,5R,12S,13R,16S)-5,9,12,13-tetramethyl-2-oxo-4-oxa-tricyclo[10.3.1.0*3,5*]hexadec-8-en-16-ylmethyl ester], 410 nM.
As to `COC(=O)OC[C@H]1[C@H]2CC[C@@H](C)[C@]1(C)CC/C(C)=C/CC[C@@]1(C)O[C@@H]1[C@@H]2O` [Carbonic acid (E)-(1R,2R,3R,5R,12S,13R,16S)-2-hydroxy-5,9,12,13-tetramethyl-4-oxa-tricyclo[10.3.1.0*3,5*]hexadec-8-en-16-ylmethyl ester methyl ester], the 50% inhibitory concentration (IC50) worked out at 130 nM.
On to `COC(=O)OC[C@H]1[C@H]2CC[C@@H](C)[C@]1(C)CC/C(C)=C/CC[C@@]1(C)O[C@@H]1C2=O` [Carbonic acid methyl ester (E)-(1R,3S,5R,12S,13R,16S)-5,9,12,13-tetramethyl-2-oxo-4-oxa-tricyclo[10.3.1.0*3,5*]hexadec-8-en-16-ylmethyl ester], for which the concentration for half-maximal inhibition (IC50) stood at 26 nM.
As to `C/C1=C\CC[C@@]2(C)O[C@@H]2C(=O)[C@@H]2CC[C@@H](C)[C@](C)(CC1)[C@H]2COC(=O)Oc1ccccc1` [Carbonic acid phenyl ester (E)-(1R,3S,5R,12S,13R,16S)-5,9,12,13-tetramethyl-2-oxo-4-oxa-tricyclo[10.3.1.0*3,5*]hexadec-8-en-16-ylmethyl ester], the half-inhibitory concentration (IC50) was found to be 550 nM.
In the case of `C/C1=C\CC[C@@]2(C)O[C@@H]2[C@H](O)[C@@H]2CC[C@@H](C)[C@](C)(CC1)[C@H]2COC(=O)N(C)C` [Dimethyl-carbamic acid (E)-(1R,2R,3R,5R,12S,13R,16S)-2-hydroxy-5,9,12,13-tetramethyl-4-oxa-tricyclo[10.3.1.0*3,5*]hexadec-8-en-16-ylmethyl ester], the IC50 came out at 180 nM.
The compound `C/C1=C\CC[C@@]2(C)O[C@@H]2C(=O)[C@@H]2CC[C@@H](C)[C@](C)(CC1)[C@H]2COC(=O)N(C)C` [Dimethyl-carbamic acid (E)-(1R,3S,5R,12S,13R,16S)-5,9,12,13-tetramethyl-2-oxo-4-oxa-tricyclo[10.3.1.0*3,5*]hexadec-8-en-16-ylmethyl ester] returned an IC50 of 180 nM.
Compound `CCC(=O)OC[C@H]1[C@H]2CC[C@@H](C)[C@]1(C)CC/C(C)=C/CC[C@@]1(C)O[C@@H]1[C@@H]2O` [Propionic acid (E)-(1R,2R,3R,5R,12S,13R,16S)-2-hydroxy-5,9,12,13-tetramethyl-4-oxa-tricyclo[10.3.1.0*3,5*]hexadec-8-en-16-ylmethyl ester] registered an IC50 of 340 nM.
